Assay [1] addresses Carbonic anhydrase 1 (Homo sapiens, UniProt P00915). As to the kind of experiment: Inhibition of human carbonic anhydrase 1 assessed as inhibition constant incubated for 1 hr prior to testing by phenol red based stopped-flow CO2 hydration assay.
In assay [2] the target is Carbonic anhydrase 9 (Homo sapiens, UniProt Q16790). As to the kind of experiment: Inhibition of human carbonic anhydrase 9 assessed as inhibition constant incubated for 1 hr prior to testing by phenol red based stopped-flow CO2 hydration assay.
Assay [3] deals with Carbonic anhydrase 12 (Homo sapiens, UniProt O43570). Nature of the assay: Inhibition of human carbonic anhydrase 12 assessed as inhibition constant incubated for 1 hr prior to testing by phenol red based stopped-flow CO2 hydration assay.

This note sets out measurements from ChEMBL document CHEMBL5360666, “Inhibition Profiles of Some Novel Sulfonamide-Incorporated α-Aminophosphonates on Human Carbonic Anhydrases” (ACS Med Chem Lett, 2023).

Some results are limits rather than exact numbers.

Chain of Carbonic anhydrase 12 (O43570 whole entry): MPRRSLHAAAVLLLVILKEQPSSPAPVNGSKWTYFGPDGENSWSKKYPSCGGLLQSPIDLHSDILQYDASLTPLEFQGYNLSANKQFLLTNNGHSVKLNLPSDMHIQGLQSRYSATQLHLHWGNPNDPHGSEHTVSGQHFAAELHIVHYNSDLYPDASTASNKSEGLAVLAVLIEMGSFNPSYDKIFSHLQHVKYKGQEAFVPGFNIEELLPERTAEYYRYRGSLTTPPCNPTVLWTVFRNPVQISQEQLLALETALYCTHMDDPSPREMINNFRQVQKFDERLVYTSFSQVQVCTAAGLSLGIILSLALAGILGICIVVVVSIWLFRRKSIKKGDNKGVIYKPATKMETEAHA
Chain of Carbonic anhydrase 1 (P00915 whole entry): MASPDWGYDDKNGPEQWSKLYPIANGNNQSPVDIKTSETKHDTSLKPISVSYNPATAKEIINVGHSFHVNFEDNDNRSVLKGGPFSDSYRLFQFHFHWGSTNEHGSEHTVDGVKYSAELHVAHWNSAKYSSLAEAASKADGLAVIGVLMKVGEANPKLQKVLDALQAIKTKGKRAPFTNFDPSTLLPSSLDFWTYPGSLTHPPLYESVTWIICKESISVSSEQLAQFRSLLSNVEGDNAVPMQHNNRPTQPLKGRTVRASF

As a reminder, the Ki is a measure of affinity in units of concentration, obtained from inhibition or displacement. In the case of `COc1ccc(CNc2ccc(S(N)(=O)=O)cc2)cc1`, the Ki is over 50000 nM in assay [1], 883 nM in assay [2] and 11.2 nM in assay [3]. For `CCOP(=O)(OCC)C(Nc1ccc(S(N)(=O)=O)cc1)c1ccc(F)cc1` (stereo not drawn), the Ki in assay [2] was 91.6 nM. As for `CCOP(=O)(OCC)C(Nc1ccc(S(N)(=O)=O)cc1)c1ccc(Cl)cc1` (stereo not drawn), in assay [2], the Ki amounted to 142 nM. Same read-out and setting: the result for `CCOP(=O)(OCC)C(Nc1ccc(S(N)(=O)=O)cc1)c1cccc(F)c1` (stereo not drawn) reads 39.1 nM; that for `CCOP(=O)(OCC)C(Nc1ccc(S(N)(=O)=O)cc1)c1ccc(SC)cc1` (stereo not drawn), 80.2 nM; that for `CCOP(=O)(OCC)C(Nc1ccc(S(N)(=O)=O)cc1)c1ccc(OC)c(OC)c1` (stereo not drawn), 118 nM. Same read-out and setting: the result for `CCOP(=O)(OCC)C(Nc1ccc(S(N)(=O)=O)cc1)c1ccc(C)cc1` (stereo not drawn) reads 147 nM; that for `CCOP(=O)(OCC)C(Nc1ccc(S(N)(=O)=O)cc1)c1c(Br)cccc1OC` (stereo not drawn), 346 nM. Same read-out and setting: under `CCOP(=O)(OCC)C(Nc1ccc(S(N)(=O)=O)cc1)c1ccc(Br)cc1` (stereo not drawn) stands 154 nM. Regarding `CCOP(=O)(OCC)C(Nc1ccc(S(N)(=O)=O)cc1)c1cc(OC)c(OC)cc1OC` (stereo not drawn), the Ki in assay [2] came to 249 nM.

Consider `CCOP(=O)(OCC)C(Nc1ccc(S(N)(=O)=O)cc1)c1cc(OC)ccc1OC` (stereo not drawn), for which, in assay [2], the Ki was found to be 470 nM. `CCOP(=O)(OCC)C(Nc1ccc(S(N)(=O)=O)cc1)c1ccc(-c2ccccc2)cc1` (stereo not drawn): in assay [2], the Ki was found to be 225 nM. With `CCOP(=O)(OCC)C(Nc1ccc(S(N)(=O)=O)cc1)c1ccccc1F` (stereo not drawn), in assay [2], the Ki stood at 26.7 nM.

For the compound `CCOP(=O)(OCC)C(Nc1ccc(S(N)(=O)=O)cc1)c1ccc(OC)cc1` (stereo not drawn), in assay [2], the Ki was 140 nM.

As to `CCOP(=O)(OCC)C(Nc1ccc(S(N)(=O)=O)cc1)c1cccc(Br)c1` (stereo not drawn), the Ki in assay [2] turned out to be 61.3 nM. The same measure, in the same setting: the result for `CCOP(=O)(OCC)C(Nc1ccc(S(N)(=O)=O)cc1)c1ccccc1[N+](=O)[O-]` (stereo not drawn) reads 293 nM.
